The conditions of data set [1]: Coleman et al. 2001; cited from earlier work.
In data set [2] the test system is guinea pigs (mothers and newborns). The data set is described as follows: Cisplatin-induced sensorineural hearing loss, auditory brainstem response (ABR). The note with it: two weeks after delivery, cisplatin 4 mg/kg i.p. once a day for 2 days, LCAR 1 mg/ml in drinking water, mean ±S.E.M. Format: in vivo, guinea pig.
The test system of data set [3] is outer hair cells (OHCs) of organ of Corti. Type of data set: in vivo. On the procedure:
Pregnant guinea pigs were divided in three groups of 4 each. […] Those from group #2 also received a supplementary dose of LCAR in their drinking water (1 mg/ml ad libitum˜100 mg/kg/day) during the second half of the pregnancy and the immediate postnatal period. Guinea pigs from group #3 (4 mothers & 10 newborns), the control group, were injected with saline solution. Two weeks after delivery, all guinea pigs (mothers and newborns) were anesthetized by intraperitoneal injections of ketamine hydrochloride (60 mg/kg) and xylazine hydrochloride (5 mg/kg), and their auditory brainstem responses (ABR) were measured. They were then euthanized with CO2, and potential cochlear damage was evaluated by confocal microscopy.
The ABR results described in FIG. 1 were independently corroborated by confocal microscopy of the organ of Corti in mothers and newborns. […] The results of FIG. 2 are quantified in Table 1 and FIG. 3.

Data set [4] relates to HEI-OC1 cells. The data set is described as follows: Cisplatin-induced apoptosis, DNA laddering and TUNEL. Format: cell-based, mouse. An excerpt:
The HEI-OC1 cell line was cloned from cochlear half-turn explants from of an Immortomouse™. […] They are polygonal squamous cells with a dense perinuclear region containing a dense accumulation of multivesicular structures. These multivesicular structures were also observed in the rest of the cytoplasm, although at a lower density. HEI-OC1 cells co-express markers specific for both sensory and supporting cells. Expression of Math-1 and myosin VIIa by these cells indicate that HEI-OC1 cells are indeed sensory hair cell precursors.
Apoptosis was confirmed using TUNEL (ApoAlert DNA Fragmentation Assay—Clontech, Palo Alto, Calif.).

Data set [5] relates to HEI-OC1 cells. The data set can be described thus: Caspase-8 and caspase-9 assays in cisplatin-treated cells. Type of data set: cell-based, mouse.
Data set [6] relates to newborn guinea pigs. The data set is described as follows: Gentamicin-induced neonatal mortality. Format: in vivo, guinea pig. On the procedure: (§1) Guinea pigs were used to evaluate the impact of prenatal LCAR supplementation on stress- and gentamicin-induced mortality in newborns because this animal model closely resembles perinatal human physiology. Pregnant guinea pigs (n=25) were divided in five groups. […] In group #2, stress was induced by intraperitoneal injections of normal saline (once daily from days 51 to 57 of gestation). Guinea pigs in group #3 were injected with gentamicin (100 mg/kg once daily from days 51 to 57 of gestation). Finally, groups #4 and #5 were injected with gentamicin as described for group #3, but received LCAR supplementation in their water supply (1 mg/ml˜100 mg/kg/day) starting either 2 weeks prior (Group #4) or simultaneously with gentamicin (Group #5). Newborn mortality was defined as either stillborn or death within the first 48 hrs of life.

Data set [7] has as its system guinea pigs (mothers and newborns). The data set is described as follows: Gentamicin-induced sensorineural hearing loss, ABR. Format: in vivo. The procedure: Guinea pigs were used to evaluate the impact of prenatal LCAR supplementation on stress- and gentamicin-induced mortality in newborns because this animal model closely resembles perinatal human physiology. Pregnant guinea pigs (n=25) were divided in five groups. […] In group #2, stress was induced by intraperitoneal injections of normal saline (once daily from days 51 to 57 of gestation). Guinea pigs in group #3 were injected with gentamicin (100 mg/kg once daily from days 51 to 57 of gestation). […] Newborn mortality was defined as either stillborn or death within the first 48 hrs of life.
We investigated the hearing condition and cochlear integrity in the guinea pigs from the five experimental groups described in the above paragraph. Typical ABR recordings from newborn guinea pigs are shown in FIG. 4, while FIG. 5 describes the statistical results. […] Gentamicin (group #3), in contrast, induced a significant increase in hearing threshold in respect to saline (group #2) in mothers (49±3 dB vs. 28±2; P≦0.01) and newborns (38±2 vs. 29±1; P≦0.01).

In data set [8] the test system is outer hair cells (OHCs) and stereocilia bundles. The data set is described as follows: Gentamicin-induced cochlear damage, confocal and scanning electron microscopy. Format: in vivo, guinea pig. On the procedure: as §1
Confocal and electron microscopy studies indicate that gentamicin induces both sensory cell death and stereocilia disruption in mothers and newborn guinea pigs. […] Whereas in Control animals the three rows of OHCs look generally intact (FIG. 6B), cochleas from guinea pigs treated with gentamicin show “scars” where supporting cells replaced dead OHCs (FIG. 6C). In addition, stereocilia bundles look completely disorganized, with significant structural changes and even “giant” stereocilia (FIG. 6D). […]

Data set [9] concerns newborn guinea pigs. The data set is described as follows: Noise-induced neonatal mortality. Type of data set: in vivo, guinea pig. The note with it: group #2: broadband noise 95 SPL 4 h/day, days 50-53 of gestation; LCAR 1 mg/ml in water from day 28. The procedure: (§2) In order to evaluate noise-induced neonatal mortality and the potential impact of prenatal LCAR supplementation, six pregnant guinea pigs were divided into three groups of two animals each. Pregnant guinea pigs in groups #1 and #2 were exposed 4 hours a day during 4 consecutive days to broadband noise (100 Hz-10 kHz) at 95 SPL during days 50 to 53 of gestation. In addition, guinea pigs in group #2 received daily LCAR supplementation in their water supply (1 mg/ml˜100 mg/kg/day) from day 28 of gestation. […] Noise exposure was performed in a sound booth, with the animals in individual plastic cages placed on a wire shelf at ˜0.8 m above the floor. Since at this time of pregnancy guinea pigs spend most of the time resting with the abdomen in contact with the cage floor, the speakers were placed below the shelf, with the sound waves directed toward the cage's floor. Sound pressure levels were measured with a calibrated digital sound level meter (Radio Shack #33-2055) inside the plastic cages.
The experimental protocol assume normal delivery after 59-62 days of pregnancy. In fact, control animals delivered at days 59 and 61, respectively. […] Neonatal mortality—expressed as the number of stillborn or newborn death within the first 48 hrs of life over the total number of animals delivered—was 77% in group #1 ( 7/9), 9% in group #2 ( 1/11), and 0% in group #3 (0/9).

In data set [10] the test system is guinea pigs (mothers and newborns). The data set can be described thus: Noise-induced hearing loss (ABR) and cochlear damage. Format: in vivo, guinea pig. The procedure: as §2
Noise-induced cochlear damage and changes in hearing threshold were evaluated in mothers and newborns (ten days after delivery) in the three groups described in the above paragraph. We found moderate threshold shifts (˜9 dB) in mothers exposed to noise (group #1). […] In newborns, we also observed a higher hearing threshold in noise-exposed animals than in those of the control group (36±2 dB group #1 and 30±1 dB group #2 vs. 22±1 dB group #3 control).
Similar damage, but concentrated in smaller regions, was present in cochleas from LCAR-supplemented animals.

Data set [11] relates to HEI-OC1 cells. The data set is described as follows: LCAR prevention of cisplatin- and gentamicin-induced apoptosis, colorimetric CaspACE assay. Format: cell-based, mouse. The note with it: 48 hours pre-incubation with 2 mg/ml LCAR. The text has this:
We further investigated whether LCAR was able to prevent cisplatin- and gentamicin-induced apoptosis in HEI-OC1 cells.

The conditions of data set [12]: humans, cited from earlier work.
[13] abbreviates: LCAR + Gentamicin = LCAR two weeks prior, Gentamicin + LCAR = simultaneous.

Read-outs that look alike come from different tables or passages of the source. Marks after values point to notes of the source that are not given here.

Turning to `CC(=O)O[C@H](CC(=O)[O-])C[N+](C)(C)C` [ALCAR, acetyl-L-carnitine], in data set [1], the “effect on noise-induced hearing loss” value is listed as “attenuates noise-induced hearing loss”.

On to `N.N.[Cl][Pt][Cl]` [Cisplatin, cisplatin], for which, in [2], the “average ABR hearing threshold” value is 46±4 dB. In [3] (guinea pig, in vivo), the “cisplatin-induced inner hair cell (IHC) damage” value is on record as “no significant”; the “loss of OHCs by cochlear turn” value was “significant loss of OHCs in the first and second turn of the cochlea”. Moreover, in [3] (mothers), the “Total % (damaged/total OHCs)” value is given as 36.0 (297/824) %, the “damaged OHC (%) Row #1” value stood at 39.6%, the “damaged OHC (%) Row #2” value is recorded as 32.6% and the “damaged OHC (%) Row #3” value was determined as 35.9%. Also, in data set [3] (newborns), the “Total % (damaged/total OHCs)” value was 34.9 (443/1268) %, the “damaged OHC (%) Row #1” value turned out to be 50.2%, the “damaged OHC (%) Row #2” value is reported as 37.9% and the “damaged OHC (%) Row #3” value is 16.9%. In the data set on HEI-OC1 cells [4] (100 μM cisplatin, periods 6 hours to 24 hours), the “incubation time after which DNA laddering was visible” value came to 18 h. The “cisplatin concentration at which apoptosis (laddering pattern) was first detected” value in the data set with HEI-OC1 cells [4] (24 hours incubation, doses 25 μM to 500 μM) was found to be 100 µM. Also, in the data set on HEI-OC1 cells [5] (12-hour incubation with 100 μM cisplatin), the caspase-9 activity result is reported as “increased about five-fold”. The caspase-8 activity result in the data set with HEI-OC1 cells [5] (cisplatin-treated HEI-OC1 cells) is “little change in activity”.

Regarding `C[N+](C)(C)C[C@H](O)CC(=O)[O-]` [LCAR, L-carnitine], the “effect of LCAR supplementation on cisplatin-induced OHC damage” value in data set [3] (mothers and newborns) is “attenuates this cisplatin-induced OHC damage”. Besides, the “neonatal mortality (stillborn or death within first 48 hrs)” value is given as 15% in the data set with newborn guinea pigs [6] (group #4: gentamicin plus LCAR 1 mg/ml in water starting 2 weeks prior), 9% with newborn guinea pigs [6] (group #5: gentamicin plus LCAR 1 mg/ml in water starting simultaneously) and 9% in the data set on newborn guinea pigs [9]. The “effect of LCAR supplementation on gentamicin ototoxicity (ABR)” value in data set [7] (LCAR from 28 days of pregnancy (group #4) or coincidental with gentamicin (group #5)) is “attenuates the ototoxic effects of gentamicin in both mothers and pups”. Further, the “effect on gentamicin-induced OHC death” value in data set [8] (LCAR prior vs simultaneous) was “significantly prevented only in animals supplemented with LCAR two weeks prior gentamicin treatment”. Besides, the “effect on gentamicin-induced stereocilia disruption” value in data set [8] (LCAR provided either prior or simultaneously with gentamicin) is listed as “inhibit gentamicin-induced stereocilia disruption”. Further, in data set [10] (LCAR-supplemented noise-exposed animals), the “noise-induced cochlear damage (microscopy)” value is “significant decrease in cochlear damage”. For the same compound, the “hearing threshold shift in noise-exposed mothers” value in data set [10] (mothers, LCAR supplemented, ten days after delivery) is “no changes were observed”. The “hearing threshold in newborns” value in data set [10] (newborns, group #2 noise + LCAR, ten days after delivery) came to 30±1 dB. For the same compound, in the data set on HEI-OC1 cells [11] (then 24 hours 50 μM gentamicin), the “gentamicin-induced cell apoptosis (caspase-3, CaspACE)” value is reported as “significantly inhibited”. For the same compound, in the data set on HEI-OC1 cells [11] (then 24 hours 200 μM cisplatin), the “cisplatin-induced cell apoptosis (caspase-3, CaspACE)” value was “significantly inhibited”. Also, the “dietary LCAR absorbed” value in data set [12] (dietary) was 54-87%. Moreover, in data set [12], the “LCAR filtered by the kidney that is reabsorbed” value is recorded as 90-98%.

For gentamicin, the “neonatal mortality (stillborn or death within first 48 hrs)” value in the data set on newborn guinea pigs [6] (group #3: gentamicin 100 mg/kg once daily, days 51 to 57 of gestation) amounted to 54%. Moreover, the “ABR hearing threshold, mothers” value in data set [7] (mothers, group #3 gentamicin 100 mg/kg daily, days 51-57 of gestation) came out at 49±3 dB. The “ABR hearing threshold, newborns” value in data set [7] (newborns, group #3 gentamicin given to pregnant mothers) is given as 38±2 dB. In [8] (setting [13]), the “OHC death, OHCs % Row #1” value is listed as 0.6* %; the “OHC death, OHCs % Row #2” value is listed as 0.9** %; the “OHC death, OHCs % Row #3” value is recorded as 0.8** %; the “OHC death, Total %” value is on record as 0.7** %.

The record behind these values is patent US20050049305A1, “Use of L-carnitine in the prevention and treatment of hearing loss” (priority 2002, published 2005).
